The source of these data is patent US10526389B2, “Peptides and combinations of peptides for use in immunotherapy against lung cancer, including NSCLC and other cancers” (Immatics Biotechnologies GmbH, priority 2015, dated 2020).

In test [1] the test system is CD8+ T cells. In words: In vitro immunogenicity of HLA-A*24 peptides (CD8+ T-cell priming with aAPCs, multimer staining). The class given is cell-based, human. On the procedure: (§1) In order to obtain information regarding the immunogenicity of the TUMAPs of the present invention, the inventors performed investigations using an in vitro T-cell priming assay based on repeated stimulations of CD8+ T cells with artificial antigen presenting cells (aAPCs) loaded with peptide/MHC complexes and anti-CD28 antibody.
(§2) Generation of pMHC/anti-CD28 coated beads, T-cell stimulations and readout was performed in a highly defined in vitro system using four different pMHC molecules per stimulation condition and 8 different pMHC molecules per readout condition.
(§3) The purified co-stimulatory mouse IgG2a anti human CD28 Ab 9.3 (Jung et al., 1987) was chemically biotinylated using Sulfo-N-hydroxysuccinimidobiotin as recommended by the manufacturer (Perbio, Bonn, Germany). Beads used were 5.6 μm diameter streptavidin coated polystyrene particles (Bangs Laboratories, Illinois, USA).
(§4) 800.000 beads/200 μl were coated in 96-well plates in the presence of 4×12.5 ng different biotin-pMHC, washed and 600 ng biotin anti-CD28 were added subsequently in a volume of 200 μl. Stimulations were initiated in 96-well plates by co-incubating 1×10^6 CD8+ T cells with 2×10^5 washed coated beads in 200 μl TCM supplemented with 5 ng/ml IL-12 (PromoCell) for 3 days at 37° C. Half of the medium was then exchanged by fresh TCM supplemented with 80 U/ml IL-2 and incubating was continued for 4 days at 37° C. This stimulation cycle was performed for a total of three times. For the pMHC multimer readout using 8 different pMHC molecules per condition, a two-dimensional combinatorial coding approach was used as previously described (Andersen et al., 2012) with minor modifications encompassing coupling to 5 different fluorochromes. Finally, multimeric analyses were performed by staining the cells with Live/dead near IR dye (Invitrogen, Karlsruhe, Germany), CD8-FITC antibody clone SK1 (BD, Heidelberg, Germany) and fluorescent pMHC multimers. For analysis, a BD LSRII SORP cytometer equipped with appropriate lasers and filters was used. Peptide specific cells were calculated as percentage of total CD8+ cells. Evaluation of multimeric analysis was done using the FlowJo software (Tree Star, Oregon, USA). In vitro priming of specific multimer+CD8+ lymphocytes was detected by comparing to negative control stimulations.
Exemplary flow cytometry results after TUMAP-specific multimer staining for 3 peptides of the invention are shown in FIGS. 3A-3E together with corresponding negative controls.

The subject of test [2] is CD8+ T cells. Put plainly: In vitro immunogenicity of HLA-A*02 peptides (CD8+ T-cell priming with aAPCs, multimer staining). The class given is cell-based, human.
Description: as §1
In order to perform in vitro stimulations by artificial antigen presenting cells loaded with peptide-MHC complex (pMHC) and anti-CD28 antibody, the inventors first isolated CD8+ T cells from fresh HLA-A*02 leukapheresis products via positive selection using CD8 microbeads (Miltenyi Biotec, Bergisch-Gladbach, Germany) of healthy donors obtained from the University clinics Mannheim, Germany, after informed consent.
PBMCs and isolated CD8+ lymphocytes were incubated in T-cell medium (TCM) until use consisting of RPMI-Glutamax (Invitrogen, Karlsruhe, Germany) supplemented with 10% heat inactivated human AB serum (PAN-Biotech, Aidenbach, Germany), 100 U/ml Penicillin/100 μg/ml Streptomycin (Cambrex, Cologne, Germany), 1 mM sodium pyruvate (CC Pro, Oberdorla, Germany), 20 μg/ml Gentamycin (Cambrex). 2.5 ng/ml IL-7 (PromoCell, Heidelberg, Germany) and 10 U/ml IL-2 (Novartis Pharma, Nurnberg, Germany) were also added to the TCM at this step.
as §2, §3, §4

Take “ABCA13-003 (EYLPEFLHTF; listed as Homo sapiens)”: in the test with CD8+ T cells [1], the “in vitro immunogenicity: donors” value was “++ (20%-49% = ++)” and the “in vitro immunogenicity: wells” value is reported as “+ (<20% = +)”.
For “ABCC1-001 (VYVTIDENNIL; listed as Homo sapiens)” the same measures were “++ (20%-49% = ++)” and “+ (<20% = +)”.
For “AHD-001 (EYSDVLAKLAF; listed as Homo sapiens)” the same measures were “+++ (50%-69% = +++)” and “+ (<20% = +)”.
Turning to “AIFM2-001 (AYKPGALTF; listed as Homo sapiens)”, in the test with CD8+ T cells [1], the “in vitro immunogenicity: donors” value is “++ (20%-49% = ++)” and the “in vitro immunogenicity: wells” value is “+ (<20% = +)”.
On the same counts, the results for “C6orf132-001 (RYGSPINTF; listed as Homo sapiens)” are “+++ (50%-69% = +++)” and “+ (<20% = +)”.
In the case of “KIQEMQHFL (listed as Homo sapiens) [SEQ ID No. 116]”, in the test on CD8+ T cells [2], the “in vitro immunogenicity: donors” value is reported as “++++ (>= 70% = ++++)” and the “in vitro immunogenicity: wells” value is listed as “+ (<20% = +)”.
On to “KLDETNNTL (listed as Homo sapiens) [SEQ ID No. 158]”, for which, in the test with CD8+ T cells [2], the “in vitro immunogenicity: donors” value was “++ (20%-49% = ++)” and the “in vitro immunogenicity: wells” value is recorded as “+ (<20% = +)”.
With “KRT-006 (TLLQEQGTKTV; listed as Homo sapiens)”, in the test with CD8+ T cells [2], the “in vitro immunogenicity: donors” value is “++ (20%-49% = ++)” and the “in vitro immunogenicity: wells” value was “+ (<20% = +)”.
As to “LIFDLGGGTFDV (listed as Homo sapiens) [SEQ ID No. 16]”, in the test with CD8+ T cells [2], the “in vitro immunogenicity: donors” value was “+++ (50%-69% = +++)” and the “in vitro immunogenicity: wells” value is on record as “+ (<20% = +)”.
With “LIQDRVAEV (listed as Homo sapiens) [SEQ ID No. 14]”, in the test with CD8+ T cells [2], the “in vitro immunogenicity: donors” value is given as “++++ (>= 70% = ++++)” and the “in vitro immunogenicity: wells” value was “+ (<20% = +)”.
“MAGEF1-001 (ILFPDIIARA; listed as Homo sapiens)”: in the test with CD8+ T cells [2], the “in vitro immunogenicity: donors” value was “++++ (>= 70% = ++++)” and the “in vitro immunogenicity: wells” value is given as “+++ (50%-69% = +++)”.
For “MCM5-001 (ALSGTLSGV; listed as Homo sapiens)” the same measures were “++++ (>= 70% = ++++)” and “+ (<20% = +)”.
For “MXRA5-001 (TLSSIKVEV; listed as Homo sapiens)” the same measures were “++++ (>= 70% = ++++)” and “+ (<20% = +)”.
On the same counts, the results for “MXRA5-002 (GLTDNIHLV; listed as Homo sapiens)” are “++++ (>= 70% = ++++)” and “+ (<20% = +)”.
As to “NLIEKSIYL (listed as Homo sapiens) [SEQ ID No. 141]”, in the test on CD8+ T cells [2], the “in vitro immunogenicity: donors” value is “++++ (>= 70% = ++++)” and the “in vitro immunogenicity: wells” value was “+ (<20% = +)”.
Consider “PCNXL3-001 (GVLENIFGV; listed as Homo sapiens)”, for which, in the test on CD8+ T cells [2], the “in vitro immunogenicity: donors” value is “+++ (50%-69% = +++)” and the “in vitro immunogenicity: wells” value is given as “+ (<20% = +)”.
On the same counts, the results for “PLT-001 (ALFGALFLA; listed as Homo sapiens)” are “++ (20%-49% = ++)” and “+ (<20% = +)”.
Turning to “PRPF3-001 (AMGIAPPKV; listed as Homo sapiens)”, in the test on CD8+ T cells [2], the “in vitro immunogenicity: donors” value is given as “++++ (>= 70% = ++++)” and the “in vitro immunogenicity: wells” value is “++++ (>= 70% = ++++)”.
For “RAD54B-001 (SLYKGLLSV; listed as Homo sapiens)”, in the test on CD8+ T cells [2], the “in vitro immunogenicity: donors” value was “++++ (>= 70% = ++++)” and the “in vitro immunogenicity: wells” value was “++ (20%-49% = ++)”.
Consider “RLASYLDKV (listed as Homo sapiens) [SEQ ID No. 133]”, for which, in the test with CD8+ T cells [2], the “in vitro immunogenicity: donors” value is reported as “++++ (>= 70% = ++++)” and the “in vitro immunogenicity: wells” value was “++ (20%-49% = ++)”.
Turning to “RLDDLKMTV (listed as Homo sapiens) [SEQ ID No. 125]”, in the test on CD8+ T cells [2], the “in vitro immunogenicity: donors” value was “++++ (>= 70% = ++++)” and the “in vitro immunogenicity: wells” value was “+ (<20% = +)”.
On the same counts, the results for “RLLDSVSRL (listed as Homo sapiens) [SEQ ID No. 121]” are “++++ (>= 70% = ++++)” and “++ (20%-49% = ++)”.
On the same counts, the results for SERPINB3-001 (KLFGEKTYL) are “+++ (50%-69% = +++)” and “+ (<20% = +)”.
Take “SF3B3-001 (ELDRTPPEV; listed as Homo sapiens)”: in the test with CD8+ T cells [2], the “in vitro immunogenicity: donors” value is “++++ (>= 70% = ++++)” and the “in vitro immunogenicity: wells” value is given as “++ (20%-49% = ++)”.
Regarding “SILEHQIQV (listed as Homo sapiens) [SEQ ID No. 106]”, in the test on CD8+ T cells [2], the “in vitro immunogenicity: donors” value is “+ (<20% = +)” and the “in vitro immunogenicity: wells” value is “+ (<20% = +)”.
“SLQGSIMTV (listed as Homo sapiens) [SEQ ID No. 6]”: in the test with CD8+ T cells [2], the “in vitro immunogenicity: donors” value is recorded as “++++ (>= 70% = ++++)” and the “in vitro immunogenicity: wells” value is listed as “++ (20%-49% = ++)”.
Consider “SMYD3-001 (SLIEDLILL; listed as Homo sapiens)”, for which, in the test with CD8+ T cells [2], the “in vitro immunogenicity: donors” value is “++ (20%-49% = ++)” and the “in vitro immunogenicity: wells” value was “+ (<20% = +)”.
On the same counts, the results for “SNRNP20-001 (GLIEIISNA; listed as Homo sapiens)” are “++++ (>= 70% = ++++)” and “++ (20%-49% = ++)”.
For “TACC3-001 (KLVEFDFLGA; listed as Homo sapiens)” the same measures were “+++ (50%-69% = +++)” and “+ (<20% = +)”.
Regarding “TGFBI-001 (ALFVRLLALA; listed as Homo sapiens)”, in the test on CD8+ T cells [2], the “in vitro immunogenicity: donors” value was “++++ (>= 70% = ++++)” and the “in vitro immunogenicity: wells” value is listed as “++ (20%-49% = ++)”.
On the same counts, the results for “TLFPVRLLV (listed as Homo sapiens) [SEQ ID No. 97]” are “++++ (>= 70% = ++++)” and “+++ (50%-69% = +++)”.
Consider “TLLDFINAV (listed as Homo sapiens) [SEQ ID No. 108]”, for which, in the test with CD8+ T cells [2], the “in vitro immunogenicity: donors” value is “+++ (50%-69% = +++)” and the “in vitro immunogenicity: wells” value is “+ (<20% = +)”.
For “TLYPHTSQV (listed as Homo sapiens) [SEQ ID No. 140]”, in the test with CD8+ T cells [2], the “in vitro immunogenicity: donors” value is listed as “++++ (>= 70% = ++++)” and the “in vitro immunogenicity: wells” value was “++ (20%-49% = ++)”.
For “TMEM43-001 (KLLSDPNYGV; listed as Homo sapiens)” the same measures were “++++ (>= 70% = ++++)” and “+ (<20% = +)”.
On the same counts, the results for “TNC-001 (AMTQLLAGV; listed as Homo sapiens)” are “++ (20%-49% = ++)” and “+ (<20% = +)”.
For the substance “UBE2S-001 (ALNEEAGRLLL; listed as Homo sapiens)”, in the test with CD8+ T cells [2], the “in vitro immunogenicity: donors” value is recorded as “++++ (>= 70% = ++++)” and the “in vitro immunogenicity: wells” value is given as “+ (<20% = +)”.
In the case of “VLLPVEVATHYL (listed as Homo sapiens) [SEQ ID No. 142]”, in the test with CD8+ T cells [2], the “in vitro immunogenicity: donors” value was “++ (20%-49% = ++)” and the “in vitro immunogenicity: wells” value is given as “+ (<20% = +)”.
For “VLTSDSPAL (listed as Homo sapiens) [SEQ ID No. 19]” the same measures were “++++ (>= 70% = ++++)” and “+ (<20% = +)”.
With “WNT5A-001 (AMSSKFFLV; listed as Homo sapiens)”, in the test on CD8+ T cells [2], the “in vitro immunogenicity: donors” value is “++++ (>= 70% = ++++)” and the “in vitro immunogenicity: wells” value was “++ (20%-49% = ++)”.
“YLNVQVKEL (listed as Homo sapiens) [SEQ ID No. 11]”: in the test on CD8+ T cells [2], the “in vitro immunogenicity: donors” value was “++++ (>= 70% = ++++)” and the “in vitro immunogenicity: wells” value was “+ (<20% = +)”.
On the same counts, the results for “YVYQNNIYL (listed as Homo sapiens) [SEQ ID No. 115]” are “++++ (>= 70% = ++++)” and “+ (<20% = +)”.
